Measured values from article PMC9804781, “Identification of a Novel Pseudo‐Natural Product Type IV IDO1 Inhibitor Chemotype” (Angewandte Chemie (International Ed. in English), 2022).
Values joined by “and” are separate entries in the source; they are usually repeats but may differ in a detail not shown here. Equal values may be shown once. Read-outs that look alike come from different tables or passages of the source.

Legend:
rhIDO1 (holo-IDO1) = target: T1, rhIDO1 (holo-IDO1) (Homo sapiens, UniProt P14902); assay: nanoDSF thermal denaturation of IDO1; type: binding
T1 construct: His; made in house; host or cells: E. coli
Method: 11 µM rhIDO1 was incubated with compounds at indicated concentrations for 60 min at 37°C in 50 mM potassium phosphate buffer (16.9 mM K2HPO4, 33.1 mM, KH2PO4, pH 6.5). The thermal protein stability from 20°C to 90°C (1°C/min) was measured by means of the intrinsic tryptophan/tyrosine fluorescence using the Prometheus™ NT.48 (NanoTemper® Technologies, DE). Melting scans, first derivatives of melting scans and melting temperatures were analyzed using PR.ThermControl software (NanoTemper® Technologies, DE). Binding affinities were determined by plotting the melting temperature against the ligand concentration and fitting with a single site ligand binding function using GraphPad Prism 9.0 (GraphPad Software, Inc, US). The isothermal analysis of the nanoDSF data was performed with FoldAffinity[1] with an assumed heat capacity change ΔCp of zero. […]

His-tagged IDO2 = target: T2, His-tagged IDO2 (Homo sapiens, UniProt Q6ZQW0); assay: IDO2 Activity Assay; type: biochemical; conditions: 50 µM; 90 min + 120 min at 30 °C
T2 construct: His; purchased BPS Bioscience 72035 (kit)
T2 sequence (Q6ZQW0 1-407): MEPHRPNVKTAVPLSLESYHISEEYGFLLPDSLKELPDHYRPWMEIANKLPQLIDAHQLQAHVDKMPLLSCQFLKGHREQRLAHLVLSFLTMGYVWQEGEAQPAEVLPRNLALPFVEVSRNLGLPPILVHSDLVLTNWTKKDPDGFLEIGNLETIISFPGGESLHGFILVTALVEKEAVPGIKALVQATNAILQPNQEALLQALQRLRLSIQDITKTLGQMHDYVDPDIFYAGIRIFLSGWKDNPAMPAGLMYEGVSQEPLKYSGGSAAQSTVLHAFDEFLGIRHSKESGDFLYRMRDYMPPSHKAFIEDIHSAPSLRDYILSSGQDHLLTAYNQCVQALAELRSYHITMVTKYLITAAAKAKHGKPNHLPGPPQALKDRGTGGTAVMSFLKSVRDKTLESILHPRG
Method: Inhibition of indoleamine 2,3-dioxygenase 2 (IDO2) was tested using the Universal IDO1/IDO2/TDO Inhibitor Screening Assay Kit (cat# 72035, BPS Bioscience, US). 10 µg His-tagged IDO2 in IDO2 Assay Buffer was incubated with Complete IDO2 Reaction Solution (1% (v/v) component 2 in component 1) and 50 µM Test Inhibitor (0.5% (v/v) DMSO) for 90 min at 30°C with slow shaking in the dark prior to initiation of the reaction by addition of 20% (v/v) IDO2 Substrate. Samples were incubated for 120 min at 30°C with slow shaking in the dark. Afterwards, absorbance at 321 nm was recorded on the Spark® Multimode Microplate Reader (Tecan, AT), all values were subtracted by the background and normalized to the DMSO control.

[1] = Stability of Apoxidole-1 in Serum; type: in vitro ADME; conditions: 400 µM in FBS, 37°C, up to 48 h
Method: transparent microplates (UV-STAR®, Greiner AG, AT). Subsequently, absorbance spectra from 250 nm to 550 nm were recorded on the Spark® Multimode Microplate Reader (Tecan, AT).
SKOV-3 cells (1.25 x 10^6 cells/flask) were seeded in two T75 tissue culture flasks and incubated for 24 h prior to addition of 17.6 ng/mL IFN-γ and 10 µM succinylacetone (SA, heme synthesis inhibitor). After 24 h, cells were treated with the compound (C) or DMSO (V, vehicle) for 15 min at 37°C. Cells were detached with trypsin/EDTA and washed thrice in cold PBS after resuspension in cold PBS. C- and V-treated samples were distributed equally into ten tubes each and subjected to heating at different temperatures in the MasterCycler EpGradient S (Eppendorf SE, DE). Afterwards, NP-40 alternative was added to a final concentration of 0.4% (v/v) and cells were lysed by five consecutive freeze/thaw cycles. Soluble fractions were separated from denatured proteins by centrifugation at 100,000 x g and 4°C for 20 min. […]
A truncated version of recombinant human GST-IDO1 (rhIDO1) consisting of amino acids 5-400 of the 403 amino acid-long full-length human IDO1 was expressed in E. coli and purified as published previously.[15] The heme cofactor was released from IDO1 by overnight incubation with 2-mercaptoethanesulfonate (MESNA) as described previously[18] and heme occupancy was determined by UV/Vis spectrophotometry. […]

[2] = Ligand integrity in the crystallization drop (HPLC-ESI-MS); type: physicochemical; conditions: 63 days after the crystallization setup
Method: for 10 min. Protein crystals were obtained from a sitting drop setup (iQ plates, SPT Labtech, UK) by addition of 100 nL of the reservoir solution (40% (v/v) PEG200 in 100 mM MES, pH 6.5) to 100 nL of protein solution and incubation at 20°C. Crystals were harvested after 7 days by addition of reservoir solution as cryoprotectant to the drop prior to plunging of the crystals in liquid nitrogen. […]
The integrity of apoxidole-1 in the protein solution was assessed 63 days after the crystallization setup by mixing the crystallization drop with 100 µL of DCM and recording of HPLC-ESI-MS spectra using the LTQ Fleet (Thermo Fisher Scientific, US), Ultimate 3000 HPLC (Thermo Fisher Scientific, US) and Xcalibur™ software (Thermo Fish er Scientific, US). […]
(v/v) component 2 in component 1) and 50 µM Test Inhibitor (0.5% (v/v) DMSO) for 90 min at 30°C with slow shaking in the dark prior to initiation of the reaction by addition of 20% (v/v) IDO2 Substrate. Samples were incubated for 120 min at 30°C with slow shaking in the dark. […]

T1 sequence (P14902 whole entry): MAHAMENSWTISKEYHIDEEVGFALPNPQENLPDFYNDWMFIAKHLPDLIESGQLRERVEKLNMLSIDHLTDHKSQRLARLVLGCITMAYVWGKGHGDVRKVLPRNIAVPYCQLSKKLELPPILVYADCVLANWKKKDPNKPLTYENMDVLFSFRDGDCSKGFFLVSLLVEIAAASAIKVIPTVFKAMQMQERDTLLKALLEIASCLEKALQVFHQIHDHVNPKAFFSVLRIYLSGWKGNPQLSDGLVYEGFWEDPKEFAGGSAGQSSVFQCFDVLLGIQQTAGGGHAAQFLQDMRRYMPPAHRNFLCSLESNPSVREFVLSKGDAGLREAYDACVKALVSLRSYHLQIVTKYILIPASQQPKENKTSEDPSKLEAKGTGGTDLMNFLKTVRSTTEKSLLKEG

With `CCOC(=O)C1=CC[C@](C(=O)OC)(c2cc3ccccc3n2C)N(S(=O)(=O)c2ccc(C)cc2)[C@@H]1C(=O)OC(C)(C)C` [Compound 3d] the Kd (rhIDO1 (holo-IDO1); 48 °C, FoldAffinity, first replicate, read-out: KD, 48°C (isothermal analysis, single replicate)) was 11.6 nM, the Kd (rhIDO1 (holo-IDO1); 49 °C, FoldAffinity, read-out: KD, 49°C (isothermal analysis, single replicates)) was 24.7 nM and 26 nM and the Kd (rhIDO1 (holo-IDO1); 50 °C, FoldAffinity, read-out: KD, 50°C (isothermal analysis, single replicates)) was 48.4 nM and 34.7 nM and 24.8 nM. The Kd (rhIDO1 (holo-IDO1); 51 °C, FoldAffinity, read-out: KD, 51°C (isothermal analysis, single replicates)) was 54.4 nM and 41.3 nM and 33.6 nM, the Kd (rhIDO1 (holo-IDO1); at 49 °C, read-out: KD (isothermal analysis of nanoDSF data)) was 20.7 ± 0.01 nM and the Kd (rhIDO1 (holo-IDO1); from Tm vs concentration, mean±SD, n=3, read-out: apparent dissociation constant KD,app) was 1100 nM and 1090 nM. The “shift of melting temperature Tm (nanoDSF)” value (rhIDO1 (holo-IDO1); holo-IDO1, 60 min at 37 °C) was 7.7±0.3 °C, the “melting temperature Tm of IDO1 with compound” value (rhIDO1 (holo-IDO1); holo-IDO1 treated with compound, DMSO 45.7±0.2 °C) was 53.5±0.2 °C and the “inhibition of IDO2 (result in words)” value (His-tagged IDO2) was “did not inhibit”. The “integrity of the compound in serum” value [1] was “confirmed” and the “ligand integrity after crystallization setup” value [2] was “still intact”.
